# Data taken from BindingDB's records for doi:10.1016/j.bioorg.2007.03.001 (Burnham Institute For Medical Research, 2007).
# Target: Isoform Bcl-X(L) of Bcl-2-like protein 1 (Bcl-xL) (Homo sapiens, UniProt Q07817)
# Experiment: DELFIA Assay
# Source text: In order to figure whether these compounds were capable of displacing the interactions between Bci-XL and it's pro-apoptotic counterparts, it was testes in a heterogeneous lanthanide-based assay that have recently developed based on the DELFIA (dissociation enhanced lanthanide fluoro-immuno assay)technology (Perkin-Elmer).
# Chain of Isoform Bcl-X(L) of Bcl-2-like protein 1 (Bcl-xL) (Q07817 whole entry G70A, canonical isoform): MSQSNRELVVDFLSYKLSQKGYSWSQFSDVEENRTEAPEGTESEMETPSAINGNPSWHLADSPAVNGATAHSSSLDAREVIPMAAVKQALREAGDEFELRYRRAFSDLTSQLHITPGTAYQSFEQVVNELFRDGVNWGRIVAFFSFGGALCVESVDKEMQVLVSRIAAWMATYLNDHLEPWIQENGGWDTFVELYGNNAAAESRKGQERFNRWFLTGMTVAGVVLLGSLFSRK
IC50 [µM],Kd [µM],SMILES
0.5,–,O=C(O)c1ccccc1C(=O)c1ccc(Sc2ccc(Cl)cc2)c([N+](=O)[O-])c1 [BI-21C6]
5.7,–,O=C(O)c1ccccc1C(=O)c1ccc(Sc2ccccc2)c([N+](=O)[O-])c1 [BI-21C7]
3.3,–,Cc1csc(NC(=O)c2ccccc2C(=O)O)c1-c1nc2ccccc2s1 [BI-21C4]
5.1,19.8,N#Cc1c(-c2ccc3c(c2)OCO3)cc(-c2ccccc2O)[nH]c1=O [BI-21C5]
